# Assays:
# Type in all cases: cell-based
# [1] = system: Helicobacter pylori standard strain ATCC 43526 (NCTC 11916); test: Antibacterial Test 1: MIC against Helicobacter pylori, agar plate dilution method (anaerobic MIC method); settings: 72 h, Hp ATCC 43526, agar plate dilution, 37° C., 3 days
# B. subtilis PCI 219 = test: Antibacterial Test 2: MIC, agar dilution method (aerobic MIC method); settings: Bacillus subtilis, PCI219
# Description: (§1) Then, tested were antibacterial activities of the typical compounds of the present invention against gram-positive and -negative bacteria other than Hp. MICs of the typical compounds of the present invention were determined in substantial accordance with agar dilution method (aerobic MIC method) based on standard method of the Japan Society Chemotherapy.
# (§2) The respective test compound were dissolved in dimethyl sulfoxide (DMSO) and serially diluted twofold to prepare solutions of the compounds with concentration of 0.05-100 μg/ml. The solutions of the compounds were respectively added to sensitive-disk agar medium-N (manufactured by NISSUI SEIYAKU) to prepare agar plates for determination.
# (§3) The below-mentioned strains freezingly conserved at -135° C. were thawed in a warm bath (40° C.), cultured in a sensitivity-determining bouillon at 37° C. for 18-20 hours, and then diluted with the above-mentioned medium to prepare about 1.0×10^6 CFU/ml of bacterial suspension.
# (§4) Inoculation was made by 5 μl by multi-inoculator (manufactured by SAKUMA SEISAKUSHO). Culturing was made under the same conditions as those of the pre-culturing and the MIC (unit: μg/ml) was determined by observing whether the bacteria grew or not.
# E. coli NIHJ JC-2 = test: as above; settings: Escherichia coli, NIHJJC2
# Description: as §1, §2, §3, §4
# E. faecalis RIMD 3336001 = test: as above; settings: Enterococcus faecalis, RIMD3336001
# Description: as §1, §2, §3, §4
# K. pneumoniae PCI 602 = test: as above; settings: Klebsiella pneumoniae, PCI602
# Description: as §1, §2, §3, §4
# M. luteus ATCC 9341 = test: as above; settings: Micrococcus luteus, ATCC9341
# Description: as §1, §2, §3, §4
# P. aeruginosa IFO 3445 = test: as above; settings: Pseudomonas aeruginosa, IFO3445
# Description: as §1, §2, §3, §4
# S. aureus FDA 209P = test: as above; settings: Staphylococcus aureus, FDA209P
# Description: as §1, §2, §3, §4
Compound,MIC [1],MIC (B. subtilis PCI 219),MIC (E. coli NIHJ JC-2),MIC (E. faecalis RIMD 3336001),MIC (K. pneumoniae PCI 602),MIC (M. luteus ATCC 9341),MIC (P. aeruginosa IFO 3445),MIC (S. aureus FDA 209P)
"O=C(CSc1ccnc2ccccc12)c1ccc(OCc2ccccc2)cc1 [Compound 1, 4-[2-(4-Benzyloxyphenyl)-2-oxoethylthio]quinoline]",0.05 µg/mL,> 100 µg/mL,> 100 µg/mL,> 100 µg/mL,> 100 µg/mL,> 100 µg/mL,> 100 µg/mL,> 100 µg/mL
"O=C(CSc1ccnc2ccccc12)c1ccc(NCc2ccccc2)cc1 [Compound 23, 4-[2-(4-Benzylaminophenyl)-2-oxoethylthio]quinoline]",0.025 µg/mL,> 100 µg/mL,> 100 µg/mL,> 100 µg/mL,> 100 µg/mL,> 100 µg/mL,> 100 µg/mL,> 100 µg/mL
"COc1cc(C(=O)CSc2ccnc3ccccc23)ccc1OCC1CO1 (stereo not shown) [Compound 57, 4-[2-[3-Methoxy-4-(2,3-epoxypropoxy)phenyl]-2-oxoethylthio]quinoline]",0.39 µg/mL,,,,,,,
"COc1ccc(COc2ccc(C(=O)CSc3ccnc4ccccc34)cc2OC)cc1 [Compound 58, 4-[2-[3-Methoxy-4-(4-methoxybenzyloxy)phenyl]-2-oxoethylthio]quinoline]",0.0031 µg/mL,,,,,,,
"OC(CSc1ccnc2ccccc12)c1ccc2ccccc2c1 (stereo not shown) [Compound 61, 4-[2-(2-Naphtyl)-2-hydroxyethylthio]quinoline]",0.2 µg/mL,,,,,,,
"CSc1ccc2c(SCc3ccc(N4CCN(C=O)CC4)cc3)ccnc2c1 [Compound 63, 4-[4-(4-Formyl-1-piperazinyl)benzylthio]-7-methylthioquinoline]",0.1 µg/mL,,,,,,,
"CC(C)(C)CN1CCN(c2ccc(C(=O)CSc3ccnc4ccccc34)cc2Br)CC1 [Compound 66, 4-[2-[3-Bromo-4-(4-neopentyl-1-piperazinyl)phenyl]-2-oxoethylthio]quinoline]",0.0004 µg/mL,,,,,,,
"CCCCCCCNc1ccc(C(=O)CSc2ccnc3ccccc23)cc1 [Compound 69, 4-[2-[4-(Heptylamino)phenyl]-2-oxoethylthio]quinoline]",0.025 µg/mL,,,,,,,
"CC(C)CN(C)CC(=O)Nc1ccc(CCSc2ccnc3ccccc23)cc1 [Compound 70, 4-[2-[4-[2-(N-Isobutyl-N-methylamino)acetylamino]-phenyl]ethylthio]quinoline]",0.05 µg/mL,,,,,,,
"CC(C)CN(C)CCN(C)c1ccc(CCSc2ccnc3ccccc23)cc1 [Compound 72, 4-[2-[4-[N-[2-(N-Isobutyl-N-methylamino)ethyl]-N-methylamino]phenyl]ethylthio]quinoline]",0.05 µg/mL,,,,,,,
"CC(C)(C)OC(=O)N1CCN(c2ccc(C(=O)CSc3ccnc4ccc(F)cc34)cc2)CC1 [Compound 73, 4-[2-[4-(4-tert-Butoxycarbonyl-1-piperazinyl)phenyl]-2-oxoethylthio]-6-fluoroquinoline]",0.0062 µg/mL,,,,,,,
"CC(C)(C)C(=O)N1CC=C(c2ccc(C(=O)CSc3ccnc4ccccc34)cc2)CC1 [Compound 74, 4-[2-[4-(1-Pivaloyl-1,2,5,6-tetrahydropyrid-4-yl)phenyl]-2-oxoethylthio]quinoline]",0.0008 µg/mL,,,,,,,
"CC(C)(C)OC(=O)N1CCC(c2ccc(C(=O)CSc3ccnc4ccccc34)cc2)CC1 [Compound 75, 4-[2-[4-(1-tert-Butoxycarbonyl-4-piperidinyl)phenyl]-2-oxoethylthio]quinoline]",0.0125 µg/mL,,,,,,,
"CC(C)(C)OC(=O)N1CCCN(c2ccc(C(=O)CSc3ccnc4ccccc34)cc2)CC1 [Compound 76, 4-[2-[4-(4-tert-Butoxycarbonyl-1-homopiperazinyl)phenyl]-2-oxoethylthio]quinoline]",0.0062 µg/mL,,,,,,,
"CC(C)(C)OC(=O)N1CCN(c2ccc(C(O)CSc3ccnc4ccccc34)cc2)CC1 (stereo not shown) [Compound 87, 4-[2-[4-(4-tert-Butoxycarbonyl-1-piperazinyl)phenyl]-2-hydroxyethylthio]quinoline]",0.0008 µg/mL,,,,,,,

# Continued, values first:
MIC [1],MIC (B. subtilis PCI 219),MIC (E. coli NIHJ JC-2),MIC (E. faecalis RIMD 3336001),MIC (K. pneumoniae PCI 602),MIC (M. luteus ATCC 9341),MIC (P. aeruginosa IFO 3445),MIC (S. aureus FDA 209P),Compound
0.2 µg/mL,> 100 µg/mL,> 100 µg/mL,> 100 µg/mL,> 100 µg/mL,> 100 µg/mL,> 100 µg/mL,> 100 µg/mL,"O=C(CSc1ccnc2ccccc12)c1ccc2ccccc2c1 [Compound 2, 4-[2-(2-Naphtyl)-2-oxoethylthio]quinoline]"
0.025 µg/mL,> 100 µg/mL,> 100 µg/mL,> 100 µg/mL,> 100 µg/mL,> 100 µg/mL,> 100 µg/mL,> 100 µg/mL,"CC(C)(C)c1ccc(C(=O)CSc2ccnc3ccccc23)cc1 [Compound 5, 4-[2-(4-tert-Butylphenyl)-2-oxoethylthio]quinoline]"
0.0031 µg/mL,> 100 µg/mL,> 100 µg/mL,> 100 µg/mL,> 100 µg/mL,> 100 µg/mL,> 100 µg/mL,> 100 µg/mL,"O=C(CSc1ccnc2ccccc12)c1ccc(N2CCOCC2)c(Br)c1 [Compound 10, 4-[2-(3-Bromo-4-morpholinophenyl)-2-oxoethylthio]-quinoline]"
0.0125 µg/mL,> 100 µg/mL,> 100 µg/mL,> 100 µg/mL,> 100 µg/mL,> 100 µg/mL,> 100 µg/mL,> 100 µg/mL,"O=C(CSc1ccnc2ccccc12)c1ccc(N2CCOCC2)cc1 [Compound 11, 4-[2-(4-Morpholinophenyl)-2-oxoethylthio]quinoline]"
0.0062 µg/mL,> 100 µg/mL,> 100 µg/mL,> 100 µg/mL,> 100 µg/mL,> 100 µg/mL,> 100 µg/mL,> 100 µg/mL,"O=C(CSc1ccnc2ccccc12)c1ccc(N2CCCCC2)cc1 [Compound 22, 4-[2-(4-Piperidinophenyl)-2-oxoethylthio]quinoline]"
0.1 µg/mL,> 100 µg/mL,> 100 µg/mL,> 100 µg/mL,> 100 µg/mL,> 100 µg/mL,> 100 µg/mL,> 100 µg/mL,"CN(C)c1ccc(C(=O)CSc2ccnc3ccccc23)cc1 [Compound 26, 4-[2-(4-Dimethylaminophenyl)-2-oxoethylthio]quinoline]"
0.0062 µg/mL,,,,,,,,"O=C(CSc1ccnc2ccccc12)c1ccc(N2CCN(c3ccc(Br)cc3)CC2)cc1 [Compound 67, 4-[2-[4-[4-(4-Bromophenyl)-1-piperazinyl]phenyl]-2-oxoethylthio]quinoline]"
0.0016 µg/mL,,,,,,,,"O=C(CSc1ccnc2ccccc12)c1ccc(N2CCN(c3ncccn3)CC2)cc1 [Compound 68, 4-[2-[4-[4-(2-Pyrimidyl)-1-piperazinyl]phenyl]-2-oxoethylthio]quinoline]"
0.05 µg/mL,,,,,,,,"CC(C)CN1CC(=O)N(c2ccc(C(=O)CSc3ccnc4ccccc34)cc2)C1 [Compound 71, 4-[2-[4-(3-Isobutyl-5-oxo-1-imidazolidinyl)phenyl]-2-oxoethylthio]quinoline]"
0.0008 µg/mL,,,,,,,,"CCOC(=O)N1CCN(c2ccc(C(=O)CSc3ccnc4ccccc34)cc2)CC1 [Compound 82, 4-[2-[4-(4-Ethoxycarbonyl-1-piperazinyl)phenyl]-2-oxoethylthio]quinoline]"
0.0008 µg/mL,,,,,,,,"C=CCOC(=O)N1CCN(c2ccc(C(=O)CSc3ccnc4ccccc34)cc2)CC1 [Compound 83, 4-[2-[4-(4-Allyloxycarbonyl-1-piperazinyl)phenyl]-2-oxoethylthio]guinoline]"
0.0016 µg/mL,,,,,,,,"CN(C)S(=O)(=O)N1CCN(c2ccc(C(=O)CSc3ccnc4ccccc34)cc2)CC1 [Compound 84, 4-[2-(4-(4-Dimethylsulfamoyl-1-piperazinyl)phenyl]-2-oxoethylthio]quinoline]"
0.0031 µg/mL,,,,,,,,"CC(C)(C)NC(=O)N1CCN(c2ccc(C(=O)CSc3ccnc4ccccc34)cc2)CC1 [Compound 85, 4-[2-[4-[4-(N-tert-Butylcarbamoyl)-1-piperazinyl]phenyl]-2-oxoethylthio]quinoline]"
0.0031 µg/mL,,,,,,,,"CS(=O)(=O)N1CCN(c2ccc(C(=O)CSc3ccnc4ccccc34)cc2)CC1 [Compound 86, 4-[2-[4-(4-Methanesulfonyl-1-piperazinyl)phenyl]-2-oxoethylthio]quinoline]"

# — patent publication US6057447A, “Quinoline sulfide derivatives” (Zenyaku Kogyo Kabushiki Kaisha, priority 1996, dated 2000)
